Laboratory results published in US8536196B2, “Substituted 1,3-dioxanes useful as PPAR modulators” (Evolva SA, priority 2007, dated 2013).

Tests used:
KKA^y mice = assay: Glucose lowering effect in KKAy mouse model; format: in vivo; settings: 5 mg/kg BID oral gavage 14 days, Day 14, average ± S.E.M., 5 mg/kg
Protocol: 52 male KKA^y mice were obtained commercially (e.g., from Clea Japan) at an age of 6 weeks and put on a high fat diet upon arrival. Individual mice were housed in IVC Type II cages during both the acclimatization and the experimental phase. Both food (high fat diet) and water were supplied ad libitum.
Mice were randomized into treatment groups according to their 4-h fasting blood glucose.
4 hours after the last administration, non-fasting conditions.
Blood was collected into heparin containing glass capillaries which were subsequently centrifuged in a “Haematokrit 24” centrifuge (Hettich) at 15′200×g for 10 min at room temperature to obtain the hematocrit value.
The following serum parameters were determined on a COBAS INTEGRA 800 auto analyzer (Roche Diagnostics, Switzerland) using the reagents and protocols provided by the supplier.
All measurements were made on Day 14 of administration, except for the food intake and body weight measurements that were made on Day 12.

Gal4-PPARgammaLBD = target: T1, Gal4-PPARgammaLBD (Homo sapiens, UniProt P37231); assay: PPARgamma transactivation assay (Gal4-PPARgammaLBD, UASx4-TK-luc reporter); format: cell-based; settings: for PPAR (PPARgamma activating activity): level of activity relative to 10 μM DPD (SN1)
T1 construct: expressed in transfected cells; host or cells: mouse embryonic fibroblasts (MEFs) or ME3 cells
T1 sequence (P37231 204-505): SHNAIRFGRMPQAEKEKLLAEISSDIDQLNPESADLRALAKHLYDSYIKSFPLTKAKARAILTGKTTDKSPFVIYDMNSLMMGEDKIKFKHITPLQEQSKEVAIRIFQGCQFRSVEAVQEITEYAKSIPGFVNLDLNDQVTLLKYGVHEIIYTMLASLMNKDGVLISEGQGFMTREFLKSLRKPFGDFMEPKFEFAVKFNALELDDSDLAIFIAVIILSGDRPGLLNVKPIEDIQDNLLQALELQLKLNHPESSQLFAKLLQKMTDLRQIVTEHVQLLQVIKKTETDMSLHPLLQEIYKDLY
From the text: This is an example of a transactivation assay for determining PPAR gamma modulating activity.
The UASx-4-TK-luc reporter construct (where UAS refers to “upstream activator sequence”) contains four Gal4-responsive elements. The plasmid Gal4-PPARgammaLBD encodes a Gal4-DBD-PPARgamma-LBD fusion protein (i.e. the DNA-binding domain, DBD, of Gal4 fused to the ligand-binding domain, LBD, of PPARgamma) capable of transactivating the UASx-4-TK-luc reporter plasmid by binding to the UAS. The CMV-beta-galactosidase plasmid (where CMV is cytomegalovirus) is used for normalization of experimental values.
The cells were replated, typically in 24 well plates, so that at the time of transfection the cells are 50-70% confluent.
Briefly, per well in a 24 well plate, UASx4TKIuc (0.2 μg) Gal4-PPARgammaLBD (or pM-hPPARgamma-LBD; 0.1 μg) and CMV-beta-galactosidase (0.05 μg) in 30 μL DMEM (free of serum and antibiotics) is mixed with 30 μL DMEM (free of serum and antibiotics) containing 1 μL metafectenein. The mixture is incubated at room temperature for 20 min to allow formation of nucleic acid-lipid complexes and then approximately 60 μL is added to each well containing the 50-60% confluent cells. […] Cells were harvested after 12-24 hours and luciferase and beta-galactosidase activities were measured according to standard protocols.
“−” means that testing was not performed.

MEFs / 3T3-L1 = assay: Adipocyte differentiation induction assay (Oil Red O staining); format: cell-based, mouse; design: key to Adip. (adipocyte differentiation): 0: similar results to DPD; −1: even less adipocyte differentiation; +1: more adipocyte differentiation (both relative to DPD); settings: for Adip. (adipocyte differentiation): relative to DPD (SN1)
Protocol: This example describes an assay for determining adipocyte differention. Compounds are tested to see whether they induce adipocyte differentiation and also to see whether they inhibit adipocyte differention.
MEFs were grown in AmnioMax basal medium (Gibco) supplemented with 7.5% Amniomax supplement C-100 (Gibco), 7.5% Fetal Bovine Serum (FBS), 2 mM Glutamine, 62.5 μg/ml penicillin and 100 μg/ml Streptomycin (growth medium). At confluence, MEFs were induced to differentiation in growth medium with the addition of 1 μM dexamethasone (Sigma) 0.5 mM isobutylmethylxanthine (Sigma), 5 μg/ml insulin (Sigma) and 10 μM test compound dissolved in DMSO or DMSO alone. Medium was subsequently renewed every 48 hrs with growth media supplemented with 5 μg/ml Insulin and ligand or DMSO.
Briefly, to test compounds as inducers of adipocyte differentiation, 3T3-L1 are grown to confluence in DMEM with 10% Calf serum (CS), typically in 24 well dishes. At 2 days post confluence (day 0), cells are induced to differentiate with DMEM supplemented with 10% fetal bovine serum (FBS), 1 μM dexamethasone and the test compound (01, 1 and 10 μM). BRL49653 (1.0 μM dissolved in 100% DMSO) is used as a positive control. After 48 h, the cells are re-fed with DMEM containing 10% FBS supplemented with the test compound or the positive control. From day 4, cells are grown in DMEM with 10% FBS and are changed every second day until day 8. At day 8, cells are stained with Oil Red O as described below.
Cells cultured as described above are used for Oil Red staining. Dishes are washed in PBS and cells were fixed in 3.7% paraformaldehyde for 1 h and stained with oil red O as described in (Hansen et al 1999). Oil red O solution stock solution is prepared by dissolving 0.5 g of Oil Red O (Sigma) in 100 mL of isopropanol. Oil re 0 working solution is prepared by diluting a stock solution with water (6:4) followed by filtration.
Table II summarizes results obtained with different analogs of DPD (SN1), “0” representing similar results to DPD, “−1” representing even less adipocyte differentiation, “+1” representing more adipocyte differentiation (both relative to DPD) and “−” meaning not assayed.

PPARgamma (h) = target: T2, PPARgamma (h) (Homo sapiens, UniProt P37231); assay: Human recombinant (E. coli) PPARgamma (h) binding assay; settings: @ 10 μM
T2 construct: host or cells: E. coli
T2 sequence (P37231 1-505): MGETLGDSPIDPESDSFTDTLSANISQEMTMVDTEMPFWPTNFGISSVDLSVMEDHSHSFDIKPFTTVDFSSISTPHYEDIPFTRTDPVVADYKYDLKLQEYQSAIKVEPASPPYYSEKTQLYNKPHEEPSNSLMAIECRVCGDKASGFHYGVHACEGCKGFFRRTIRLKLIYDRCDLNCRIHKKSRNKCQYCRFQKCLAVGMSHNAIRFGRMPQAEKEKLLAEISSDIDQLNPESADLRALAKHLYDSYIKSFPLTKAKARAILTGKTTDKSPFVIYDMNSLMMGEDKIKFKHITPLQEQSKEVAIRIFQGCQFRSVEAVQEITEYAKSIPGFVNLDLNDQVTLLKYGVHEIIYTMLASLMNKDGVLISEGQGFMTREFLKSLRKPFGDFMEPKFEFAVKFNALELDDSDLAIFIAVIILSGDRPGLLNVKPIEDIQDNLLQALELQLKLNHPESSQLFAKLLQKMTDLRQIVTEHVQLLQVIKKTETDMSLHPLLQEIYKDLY
Protocol: The results are expressed as a percent of control specific binding ((measured specific binding/control specific binding)×100) obtained in the presence of the test compounds. The IC50 values (concentration causing a half-maximal inhibition of control specific binding) and Hill coefficients (nH) were determined by non-linear regression analysis of the competition curves generated with mean replicate values using Hill equation curve fitting (Y=D+[(A D)/(1+(C/C50)nH)], where Y=specific binding, D=minimum specific binding, A=maximum specific binding, C=compound concentration, C50=IC50, and nH=slope factor). This analysis was performed using a software developed at Cerep (Hill software) and validated by comparison with data generated by the commercial software SigmaPlot® 4.0 for Windows® (© 1997 by SPSS Inc.). The inhibition constants (Ki) were calculated using the Cheng Prusoff equation (Ki=IC50/(1+(L/KD)), where L=concentration of radioligand in the assay, and KD=affinity of the radioligand for the receptor).

mPPARalphaLBD = target: T3, mPPARalphaLBD (Mus musculus, UniProt P23204); assay: PPARalpha transactivation assay; format: cell-based
T3 construct: expressed in transfected cells
T3 sequence (P23204 239-466 limits assumed): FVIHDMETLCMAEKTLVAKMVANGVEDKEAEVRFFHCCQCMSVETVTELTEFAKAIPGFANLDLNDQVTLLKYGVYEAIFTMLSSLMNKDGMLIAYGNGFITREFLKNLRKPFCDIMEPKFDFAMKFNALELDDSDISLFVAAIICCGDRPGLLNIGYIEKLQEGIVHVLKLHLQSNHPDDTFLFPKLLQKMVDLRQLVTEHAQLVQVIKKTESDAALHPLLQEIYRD
Protocol: This example describes a transactivation assay for determining PPARalpha modulating activity.
DPD and other ligands are tested for their ability to transactivate PPARalpha essentially as described in Example 22.

| SMILES | Adip. (adipocyte differentiation) (MEFs / 3T3-L1) | PPAR (PPARgamma activating activity) (Gal4-PPARgammaLBD) | also measured |
| --- | --- | --- | --- |
| CN(CCOc1ccc(CC2SC(=O)NC2=O)cc1)c1ccccn1 (stereo not shown) [Rosiglitazone, rosiglitazone, reference compound] | – | – | Heart weight (KKA^y mice): increased |
| O=C(O)CC/C=C\C[C@@H]1COC(c2coc3ccc(Cl)cc3c2=O)O[C@@H]1c1ccccc1O (stereo partly shown) [compound 13] | −1 | – | PPARgamma activity (summary in words) (Gal4-PPARgammaLBD): higher potency; adipocyte differentiation (summary in words) (MEFs / 3T3-L1): low or no adipocyte differentiation |
| COc1ccc(Oc2ccccc2C2OC[C@@H](C/C=C\CCC(=O)O)[C@@H](c3ccccc3O)O2)cc1 (stereo partly shown) [compound 7] | 0 | – | PPARgamma activity (summary in words) (Gal4-PPARgammaLBD): higher potency; adipocyte differentiation (summary in words) (MEFs / 3T3-L1): low or no adipocyte differentiation |
| COc1ccc(C(=O)NCc2cccnc2)cc1C(=O)NCc1cccnc1 [Picotamide, reference compound] | – | – | PPARgamma binding @ 10 μM (PPARgamma (h)): no binding |
| COc1ccccc1[C@H]1O[C@@H](c2c(Cl)cccc2Cl)OC[C@H]1C/C=C\CCC(=O)O [compound 28] | – | Inactive | – |
| O=C(O)CC/C=C\C[C@@H]1COC2(CCNCC2)O[C@@H]1c1ccccc1O [compound 8] | −1 | Boc de- rivative Inactive | – |
| CC(C)(Sc1ccc(CCN(CCCCC2CCCCC2)C(=O)NC2CCCCC2)cc1)C(=O)O [GW7647, reference compound] | – | – | increase in PPARalpha transactivation (mPPARalphaLBD): over 2 fold |
| O=C(O)CC/C=C\C[C@@H]1COC(c2ccccc2-c2ccccc2)O[C@@H]1c1ccccc1O (stereo partly shown) [compound 10] | 0 | Antagonist | PPARgamma activity (summary in words) (Gal4-PPARgammaLBD): PPARgamma antagonist |
| COc1ccccc1[C@H]1OC(c2ccccc2Cl)OC[C@H]1C/C=C\CCC(=O)O (stereo partly shown) [compound 27] | – | Inactive | – |
| COc1ccccc1[C@H]1OC(C)(C)OC[C@H]1C/C=C\CCCCC(=O)O [compound 37] | 0 | Inactive | – |
| CC1(C)OC[C@@H](C/C=C\CCCCC(=O)O)[C@@H](c2ccccc2O)O1 [compound 36] | – | Inactive | – |
